The record followed here is patent US20080021045A1, “7-Amino-5-Halopyrazolopyrimidines with a Fungicidal Action” (BAYER CROPSCIENCE AKTIENGESELLSCHSFT, priority 2003, published 2008).

The nature of this data set: logP determination by HPLC (EEC Directive 79/831 Annex V. A8). Format: physicochemical. As to conditions: gradient method, acetonitrile/0.1% aqueous phosphoric acid.
Broadly, the chromatographic logP is a lipophilicity value derived from retention on a column. Molecule `CCC(C)c1c(Cl)nc2c(C#N)cnn2c1NC(C)C(C)C` (stereo not drawn) [Example 1, 3-cyano-5-chloro-6-(sec-butyl)-7-[(S+)-3-methyl-2-butylamino]pyrazolo[1,5-a]pyrimidine] registered a chromatographic logP of 4.59.
The molecule `CCC(C)c1c(Cl)nc2c(C=O)cnn2c1NC(C)C(C)C` (stereo not drawn) [Example 2, 3-formyl-5-chloro-6-(sec-butyl)-7-(3-methyl-2-butylamino)pyrazolo[1,5-a]pyrimidine] gave a chromatographic logP of 4.17.
The molecule `CCC(C)c1c(Cl)nc2c(C#N)cnn2c1Cl` (stereo not drawn) [Example 30, 3-cyano-5,7-dichloro-6-(sec-butyl)pyrazolo[1,5-a]pyrimidine] came in with a chromatographic logP of 3.27.
